Data published in patent publication US6713043B2 (priority 1996, dated 2004).
In brackets after ≈: the same amount, converted by molar mass. Entries after “also recorded” stand apart in the source; their conditions may differ.

Experiments:
F4b in human macrophages = type: cell-based, Legionella pneumophila
F4b [1] = type: cell-based, Legionella pneumophila
[2] = test system: L. pneumophila in HL-60 cells; type: cell-based, Legionella pneumophila
L. pneumophila [3] = type: cell-based, Legionella pneumophila
F4b in HL-60 cells = type: cell-based, Legionella pneumophila
[4] = test system: L. pneumophila in mouse J774 macrophages; type: cell-based, Legionella pneumophila
L. pneumophila [5] = assay: microbe, parasite or virus in culture; type: cell-based, Legionella pneumophila; conditions: for MIC: Legionella pneumophila, 48 h, read-out: MIC (minimum concentration at which no growth occurred)
[6] = in vivo; cited from earlier work
L. pneumophila [7] = type: cell-based, Legionella pneumophila; remark: listed apart in the source
[8] = test system: L. pneumophila infected HL-60 cells; type: cell-based, human
L. pneumophila [9] = type: cell-based, Legionella pneumophila; remark: listed apart in the source
[10] = test system: L. pneumophila in human macrophages; type: cell-based, Legionella pneumophila
F4b [11] = type: cell-based, Legionella pneumophila; remark: listed apart in the source
HL-60 cells = conditions: human
[12] = test system: L. pneumophila in human monocytes; type: cell-based, Legionella pneumophila
P. aeruginosa = type: cell-based, Psuedomonas aeruginosa
F4b [13] = type: cell-based, Legionella pneumophila; remark: listed apart in the source
wild type L. pneumophila = type: cell-based, Legionella pneumophila

Cc1ccc(C)c(OCCCC(C)(C)C(=O)O)c1 [GFZ, Gemfibrozil]
inhibition of intracellular growth (CFU) (F4b in human macrophages): one log
inclusion accumulation (EM) (F4b [1]): no apparent difference in the number or size of inclusions
inhibition of intracellular growth (CFU) [2]: partially inhibited; also recorded: three logs
GFZ concentration at which no growth was seen on the CYE plates (L. pneumophila [3]): 400 µg/mL
bacteriocidal or bacteriostatic (L. pneumophila [3]): bacteriostatic
inhibition of intracellular growth (CFU) (F4b in HL-60 cells): one log
inhibition of intracellular growth (CFU) [4]: one log; also recorded: partially inhibited
growth in AYE broth in presence of GFZ (L. pneumophila [5]): inhibited L. pneumophila growth
MIC (L. pneumophila [5]): 10 µg/mL (≈ 39.9 µM)
concentration of gemfibrozil used in humans treated for hyperlipidemia [6]: 15000 to 30000 ng/mL
effect on fatty acid profile (L. pneumophila [7]): decreased peak areas for several typical L. pneumophila fatty acids
viability of L. pneumophila infected HL-60 cells (MTT reduction) [8]: increased viability
inclusion accumulation (EM) (L. pneumophila [9]): accumulated granules
inhibition of intracellular growth (CFU) [10]: partially inhibited
effect on fatty acid profile (F4b [11]): did not affect the fatty acid profile
effect on HL-60 cell viability (HL-60 cells): did not affect HL-60 cell viability
inhibition of intracellular growth (CFU) [12]: one log; also recorded: partially inhibited
susceptibility to GFZ (P. aeruginosa): not susceptible

NNC(=O)c1ccncc1 [isoniazid]
sensitivity (zone of inhibition) (F4b [13]): sensitive
sensitivity (zone of inhibition) (wild type L. pneumophila): no sensitivity

CCCN(CCC)S(=O)(=O)c1ccc(C(=O)O)cc1 [Probenecid, probenecid]
MIC (L. pneumophila [5]): 160 µg/mL (≈ 561 µM)

CCc1cc(C(N)=S)ccn1 [ethionamide]
sensitivity of wild type L. pneumophila relative to F4b (zone of inhibition) (wild type L. pneumophila): twice as sensitive

CC(C)(Oc1ccc(Cl)cc1)C(=O)O [clofibric acid]
MIC (L. pneumophila [5]): 125 µg/mL (≈ 582 µM)
